Assay results reported in patent publication US11649236B2, “Polycyclic carbamoylpyridone derivative” (Shionogi & Co., Ltd., priority 2018, dated 2023).

Key:
HIV [1] = assay: Anti-HIV activity (MT-4 cells, MTT); assay type: cell-based; conditions: Human immunodeficiency virus 1, MT4, 96 h, cultured 4 days
Outline: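 MT-4 cells (2.5×10^5 cells/mL) mixed with serial dilutions of test sample and HIV, cultured 4 days in CO2 incubator. MTT added for 1 h, cells lysed, absorbance read at 560 nm and 690 nm.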

[2] = system: HIV mutant strain 1 (E138K/G140S/Q148H/N155H); assay: Resistance evaluation test (HeLa-CD4 reporter), mutant strain 1; assay type: cell-based; conditions: FC=EC50 of mutant strain/EC50 of wild strain, HeLa-CD4 cells
Procedure: (§1) Serial dilutions of a test sample were prepared in a96-well microplate (50 μL/well). 2.5×10^5 cells/mL of a HeLa-CD4 cell suspension was dispensed at 100 μL/well to the plate containing the test sample. Then, an HIV virus solution (wild strain and mutant strain) was dispensed at 50 μL/well. The plate was mixed with a plate mixer and cultured for 3 days in a CO2 incubator. The culture supernatant in each well was removed by suction. A cell lysis buffer in a reporter assay kit was dispensed at 100 μL/well, and the plate was frozen in a freezer (−80° C.). The plate frozen in a freezer was thawed at room temperature, then mixed with a plate mixer, and centrifuged at 1,200 rpm for 5 minutes. The supernatant of each well was dispensed at 20 μL/well to a 96-well microplate (BLACK). A chemiluminescent reagent in the reporter assay kit was dispensed at 100 μL/well and reacted at room temperature for approximately 1 hour. Then, luminescence intensity was measured using MicroBeta TRILUX. […] FC=EC50 of mutant strain/EC50 of wild strain (Results) FC for the mutant strain 1 (E138K/G140S/Q148H/N155H) and FC for the mutant strain 2 (E92Q/E138T/G140S/Q148H) are shown in the table.

[3] = system: HIV mutant strain 2 (E92Q/E138T/G140S/Q148H); assay: Resistance evaluation test (HeLa-CD4 reporter), mutant strain 2; assay type: cell-based; conditions: FC=EC50 of mutant strain/EC50 of wild strain, HeLa-CD4 cells
Procedure: as §1

[4] = Clearance evaluation test; assay type: in vivo; conditions: rat, plasma, 1 umol/kg, rats, intravenous 1 μmol/kg
Text: Experimental Material and Method (1) Animals used: rats were used. (2) Rearing conditions: the rats were allowed to freely take solid feed and sterilized tap water. (3) Dose and grouping setting: a predetermined dose was intravenously administered. Groups were set as follows: Intravenous administration: 1 μmol/kg (n=2) (4) Preparation of dosing solution: the test sample was solubilized using a solvent of dimethyl sulfoxide/propylene glycol=1/1 and administered. (5) Administration method: the test sample was administered to the tail vein through a syringe with an injection needle. (6) Evaluation item: blood was collected over time, and the concentration of the compound of the present invention in plasma was measured using LC/MS/MS. (7) Statistical analysis: total body clearance (CLtot) and elimination half-life (t½) were calculated as to change in the concentration of the compound of the present invention in plasma by the moment analysis method.

Metabolic stability test = assay type: in vitro ADME, human; set-up: key: % remaining vs amount at 0 min (=100%)
Procedure: Commercially available pooled human liver microsomes were reacted with the compound of the present invention for a certain time. A residual rate was calculated by the comparison between the reacted sample and an unreacted sample to evaluate the degree at which the compound of the present invention is metabolized in the liver. A reaction was performed (oxidative reaction) at 37° C. for 0 minutes or 30 minutes in the presence of 1 mmol/L NADPH in 0.2 mL of a buffer (50 mmol/L Tris-HCl pH 7.4, 150 mmol/L potassium chloride, 10 mmol/L magnesium chloride) containing 0.5 mg protein/mL of human liver microsomes. After the reaction, 50 μL of the reaction solution was added to 100 μL of a solution of methanol/acetonitrile=1/1 (v/v) and mixed, and the mixture was centrifuged at 3000 rpm for 15 minutes. The compound of the present invention in the centrifugation supernatant was quantified by LC/MS/MS or solid-phase extraction (SPE)/MS. The amount of the compound of the present invention remaining after the reaction was calculated with the amount of the compound at 0 minutes of the reaction defined as 100%.

[5] = biological target: Voltage gated sodium channel (Nav 1.5 channel) (Homo sapiens, UniProt Q14524); conditions: pH 7.4
Chain of Voltage gated sodium channel (Nav 1.5 channel) (Q14524 whole entry): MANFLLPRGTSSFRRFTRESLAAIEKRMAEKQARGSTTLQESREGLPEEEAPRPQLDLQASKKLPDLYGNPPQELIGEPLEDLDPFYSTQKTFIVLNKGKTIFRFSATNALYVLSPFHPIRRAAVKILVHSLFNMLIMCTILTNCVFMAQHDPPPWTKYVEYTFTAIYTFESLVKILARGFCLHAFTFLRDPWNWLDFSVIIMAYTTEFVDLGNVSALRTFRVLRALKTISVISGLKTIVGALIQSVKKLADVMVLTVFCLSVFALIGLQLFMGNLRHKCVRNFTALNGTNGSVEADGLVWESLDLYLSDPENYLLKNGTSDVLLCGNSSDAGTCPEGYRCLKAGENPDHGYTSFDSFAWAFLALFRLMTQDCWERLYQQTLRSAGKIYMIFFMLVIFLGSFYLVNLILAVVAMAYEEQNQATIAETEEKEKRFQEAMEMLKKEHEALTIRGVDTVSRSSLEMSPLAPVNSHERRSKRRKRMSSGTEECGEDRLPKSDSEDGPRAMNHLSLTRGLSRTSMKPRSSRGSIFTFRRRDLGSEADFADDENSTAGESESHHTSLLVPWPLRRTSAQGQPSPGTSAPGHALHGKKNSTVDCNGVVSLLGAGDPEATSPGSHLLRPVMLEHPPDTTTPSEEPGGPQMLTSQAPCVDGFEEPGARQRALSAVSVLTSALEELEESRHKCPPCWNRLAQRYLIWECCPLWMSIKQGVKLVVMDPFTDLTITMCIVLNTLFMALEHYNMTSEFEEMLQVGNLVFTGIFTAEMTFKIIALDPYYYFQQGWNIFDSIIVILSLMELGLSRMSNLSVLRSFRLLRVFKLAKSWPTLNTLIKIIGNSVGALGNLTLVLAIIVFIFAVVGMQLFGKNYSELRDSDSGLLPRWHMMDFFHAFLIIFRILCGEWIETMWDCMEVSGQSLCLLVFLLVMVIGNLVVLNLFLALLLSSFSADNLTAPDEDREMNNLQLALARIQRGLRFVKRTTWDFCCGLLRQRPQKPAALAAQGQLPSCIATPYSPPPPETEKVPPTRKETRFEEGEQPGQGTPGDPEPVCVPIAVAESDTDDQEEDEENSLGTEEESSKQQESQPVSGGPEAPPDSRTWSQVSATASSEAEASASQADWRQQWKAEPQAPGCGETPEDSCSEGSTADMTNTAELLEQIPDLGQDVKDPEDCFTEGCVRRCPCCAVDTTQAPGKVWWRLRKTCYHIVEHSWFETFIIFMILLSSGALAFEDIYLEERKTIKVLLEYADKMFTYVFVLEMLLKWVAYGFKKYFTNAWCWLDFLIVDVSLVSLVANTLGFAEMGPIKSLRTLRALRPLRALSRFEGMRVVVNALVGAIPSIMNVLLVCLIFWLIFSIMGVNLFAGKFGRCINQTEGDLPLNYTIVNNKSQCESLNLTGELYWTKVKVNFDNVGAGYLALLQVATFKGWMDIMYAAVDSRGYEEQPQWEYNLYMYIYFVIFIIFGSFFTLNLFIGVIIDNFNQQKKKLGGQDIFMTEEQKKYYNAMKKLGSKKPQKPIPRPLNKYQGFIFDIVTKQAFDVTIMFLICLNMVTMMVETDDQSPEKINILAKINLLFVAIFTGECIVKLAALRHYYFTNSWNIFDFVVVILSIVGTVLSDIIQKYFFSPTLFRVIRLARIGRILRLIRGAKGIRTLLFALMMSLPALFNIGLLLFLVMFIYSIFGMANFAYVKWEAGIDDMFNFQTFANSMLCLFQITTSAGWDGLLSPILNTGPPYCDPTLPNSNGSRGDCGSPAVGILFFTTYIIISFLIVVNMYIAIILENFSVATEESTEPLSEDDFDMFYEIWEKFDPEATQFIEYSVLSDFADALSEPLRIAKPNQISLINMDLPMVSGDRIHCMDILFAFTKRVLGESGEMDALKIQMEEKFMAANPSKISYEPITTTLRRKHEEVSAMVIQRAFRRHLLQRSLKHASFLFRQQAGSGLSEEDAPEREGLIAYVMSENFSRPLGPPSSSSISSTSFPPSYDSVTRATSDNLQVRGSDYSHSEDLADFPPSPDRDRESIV
Text: For the purpose of assessing risk of arrhythmogenesis of the compound of the present invention, effects of the compound of the present invention on Na^+ current (INa), which plays an important role in the depolarization process of myocardium, was studied using HEK cells expressing Voltage gated sodium channel (Nav 1.5 channel) encoded by SCN5A gene. A cell is retained at a membrane potential of −100 mV by the whole cell patch clamp method using an automated patch clamp system (QPatch; Sophion Bioscience A/S), then INa induced by depolarization stimulation at −10 mV for 20 milliseconds, was recorded. […] From the obtained INa, an absolute value of the maximum peak current was measured based on the current value at the resting membrane potential using analysis software (QPatch Assay software; Sophion Bioscience A/S). The maximum peak current at the time of the application of the compound of the present invention with respect to the maximum peak current at the time of the application of the vehicle was further calculated to evaluate the influence of the compound of the present invention on INa.

HIV [6] = assay: Anti-HIV activity evaluation test using PBMC of healthy humans; assay type: cell-based; conditions: Human immunodeficiency virus 1, 96 h, read-out: 90% HIV inhibitory concentration (EC90); PHA-stimulated PBMC, 4 days, reverse transcriptase activity
Procedure: Serial dilutions of a test sample were prepared in a 96-well microplate (50 μL/well). 1.0×10^5/well of PBMC stimulated with Phytohemagglutinin (PHA) and an HIV viral solution were mixed in the required number of wells and the mixture was reacted at 37° C. for 1 hour. After the reaction, the cell suspension was centrifuged and the supernatant was discarded, and the infected cells were dispersed in the culture medium in the required number of wells at 150 μL/well. The obtained medium was dispensed at 150 μL/well to a 96-well microplate containing the test sample. The plate was mixed with a plate mixer and cultured for 4 days in a CO2 incubator. The reverse transcriptase activity in the culture medium was measured.

HIV [7] = assay: Anti-HIV activity evaluation test in the presence of human serum protein (MT-4 cells); assay type: cell-based; conditions: PS=4×(EC50 in 25% human serum protein/EC50 in absence), 100% extrapolation value
Procedure: Serial dilutions of a test sample were prepared in a 96-well microplate (50 μL/well). A human serum protein solution (50% human serum protein concentration) was dispensed at 100 μL/well into a 96-well microplate containing the test sample, and allowed to be left still at room temperature for 1 hour. For the plate of serum absence, the culture medium was dispensed at 100 μL/well. 3.0×10^5/well of MT-4 cells and 3 μL/well of an HIV viral solution were mixed in an amount of the required number of wells, and the mixture was reacted at 37° C. for 1 hour. After the reaction, the cell suspension was centrifuged and the supernatant was discarded, and the infected cells were dispersed in the culture medium in an amount of the required number of wells at 50 μL/well, and dispensed at 50 μL/well to a 96-well microplate containing the test sample and human serum protein (final concentration of the human serum protein: 25%). The plate was mixed with a plate mixer and cultured for 4 days in a CO2 incubator. An MTT (3-(4,5-dimethylthiazol-2-yl)-2,5-diphenyltetrazolium bromide) solution was dispensed at 30 μL/well. The plate was reacted for 1 hour in a CO2 incubator. 150 μL of the supernatant was removed from each well so as not to take up the cells. […] The absorbance of the mixed plate was measured at two wavelengths of 560 nm and 690 nm using a microplate reader. […]

[8] = compound 0.5 μmol/L, human liver microsomes 0.5 mg protein/mL, NADPH, 37° C., 30 minutes, amount at 0 minutes defined as 100%
[9] = human, 30 min, 0.5 μmol/L, pH 7.4

Structure (SMILES) | EC50 (HIV [1]) [nM] | FC mutant strain 1 [2] | FC mutant strain 2 [3] | half-life ([4]; read-out: elimination half-life (t½) (converted)) [h] | clearance ([4]; read-out: total body clearance (CLtot)) [mL/min/kg] | residual rate (Metabolic stability test; [8]) | maximum peak current (INa) with compound with respect to vehicle [5] [%] | EC90 (HIV [6]) [nM] | Potency shift (PS) (HIV [7]) | residual rate (Metabolic stability test; [9])
CN1C(=O)c2c(O)c(=O)c(C(=O)NCc3cccc(Cl)c3F)cn2N2C[C@@H]3CC[C@@H](C3)[C@@H]12 [II-028] | 1.4 | 9.9 | 15 | 26.7 | 0.102 | 74.2 |  |  |  | 
COC[C@@H]1CC[C@H]2N(C)C(=O)c3c(O)c(=O)c(C(=O)NCc4cccc(Cl)c4F)cn3N12 [II-031] | 0.34 | 10 | 6.9 |  |  | 86 | 79 | 0.73 | 364 | 
CCN1C(=O)c2c(O)c(=O)c(C(=O)NCc3ccc(F)cc3F)cn2N2C[C@@H](C)C[C@@H]12 [II-051] | 0.74 | 19 | 21 |  |  | 96 |  | 3.3 | 236 | 
CCN1C(=O)c2c(O)c(=O)c(C(=O)NCc3cccc(Cl)c3F)cn2N2[C@H]3COC[C@H]3C[C@@H]12 [II-060] | 0.27 | 22 | 16 |  |  |  |  |  |  | 61.6
CN1C(=O)c2c(O)c(=O)c(C(=O)NCc3cccc(Cl)c3F)cn2N2C[C@@H]3CC[C@@H](O3)[C@@H]12 [II-066] | 0.17 | 25 | 15 |  |  | 97.7 |  |  |  | 
CCN1C(=O)c2c(O)c(=O)c(C(=O)NCc3ccc(F)cc3F)cn2N2CC[C@H](C)C[C@@H]12 [II-071] | 0.74 | 27 | 22 |  |  | 104 |  |  |  | 
CCN1C(=O)c2c(O)c(=O)c(C(=O)NCc3ccc(F)cc3)cn2N2CCCC[C@@H]12 [II-077] | 1.1 | 32 | 36 |  |  | 100 |  |  |  | 
CN1C(=O)c2c(O)c(=O)c(C(=O)NCc3c(F)cc(F)cc3F)cn2N2CCCC[C@@H]12 [II-087] | 1.4 | 38 | 14 |  |  | 105 |  |  |  | 
C[C@H]1CC[C@H]2N(C)C(=O)c3c(O)c(=O)c(C(=O)NCc4ccc(Cl)cc4F)cn3N2C1 [II-090] | 3.2 | 38 | 25 |  |  | 95.7 |  |  |  | 
CCN1C(=O)c2c(O)c(=O)c(C(=O)NCc3ccc(F)cc3F)cn2N2[C@H](COC)CC[C@@H]12 [II-093] | 0.32 | 39 | 38 |  |  | 97.5 |  |  |  | 
CN1C(=O)c2c(O)c(=O)c(C(=O)NCc3cccc(Cl)c3F)cn2N2CCCC[C@@]12C [II-099] | 0.33 | 44 | 26 |  |  | 88.6 |  |  |  | 
CCN1C(=O)c2c(O)c(=O)c(C(=O)NCc3ccc(F)cc3F)cn2N2C[C@@H]3CC[C@@H](O3)[C@@H]12 [II-102] | 0.61 | 47 | 45 |  |  | 101 |  |  |  | 
CN1C(=O)c2c(O)c(=O)c(C(=O)NCc3cccc(F)c3F)cn2N2CCCC[C@@H]12 [II-104] | 0.69 | 48 | 17 |  |  | 96.9 |  |  |  | 
CCN1C(=O)c2c(O)c(=O)c(C(=O)NCc3ccc(F)cc3F)cn2N2C[C@H](COC)C[C@@H]12 [II-105] | 0.58 | 48 | 62 |  |  | 84.3 |  |  |  | 
CN1C(=O)c2c(O)c(=O)c(C(=O)NCc3cccc(Cl)c3F)cn2N2CCOC[C@@H]12 [II-108] | 0.61 | 50 | 27 |  |  | 97.2 |  |  |  | 
CN1C(=O)c2c(O)c(=O)c(C(=O)NCc3cccc(Cl)c3F)cn2N2[C@H]3COC[C@H]3C[C@@H]12 [II-133] | 0.43 | 76 | 17 |  |  |  |  |  |  | 101
CCN1C(=O)c2c(O)c(=O)c(C(=O)NCc3ccc(F)cc3F)cn2N2[C@H]3COC[C@H]3C[C@@H]12 [II-136] | 0.65 | 78 | 110 |  |  |  |  |  |  | 77.2
CN1C(=O)c2c(O)c(=O)c(C(=O)NCc3cccc(Cl)c3F)cn2N2C[C@@H]3CCC[C@@H](C3)[C@@H]12 [II-153] | 0.74 | 18 | 10 |  |  | 75.4 |  |  |  | 
CCN1C(=O)c2c(O)c(=O)c(C(=O)NCc3ccc(F)cc3F)cn2N2C[C@@H]3CCC[C@@H](O3)[C@@H]12 [II-156] | 0.33 | 26 | 16 |  |  | 98.6 |  |  |  | 
CCN1C(=O)c2c(O)c(=O)c(C(=O)NCc3ccc(F)nc3F)cn2N2C[C@@H]3CC[C@@H](O3)[C@@H]12 [II-157] | 2.2 | 36 | 25 |  |  | 105 |  |  |  | 
